# Test results from patent publication US20230114728A1 (Venatorx Pharmaceuticals, Inc., priority 2019, published 2023).
# Like-named read-outs stand apart in the source and are kept apart here.
# How the values were obtained:
# Assay type in all cases: cell-based
# [1] = system: N. gonorrhoeae ATCC 49226; assay: Liquid broth MIC in Fastidious broth; settings: Neisseria gonorrhoeae, ATCC49226, Fastidious broth
# Procedure, shortened: (§1)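 Colonies were swabbed from chocolate agar after 24 h growth and standardised by optical density at 600 nm. Compounds were serially diluted twofold in Fastidious broth, and bacteria added to give 5×10^5 CFU/mL. After about 24 h at 36 °C in 5% CO2, the lowest concentration allowing under 10% growth was taken as MIC.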
# [2] = system: N. gonorrhoeae FA1090; assay: Liquid broth MIC in Fastidious broth; settings: Neisseria gonorrhoeae, Fastidious broth
# Procedure, shortened: as §1
# [3] = system: N. gonorrhoeae H041; assay: Liquid broth MIC in Fastidious broth; settings: Neisseria gonorrhoeae
# Procedure, shortened: (§2)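 MIC = lowest concentration giving <10% growth relative to untreated wells, scored by eye after ~24 h at 36 °C, 5% CO2. Strains carry mosaic PBP2; inoculum 5×10^5 CFU/mL in Fastidious broth with 2-fold serial compound dilutions.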
# [4] = system: N. gonorrhoeae WHO G; assay: Liquid broth MIC in Fastidious broth; settings: Neisseria gonorrhoeae, Fastidious broth
# Procedure, shortened: as §1
# [5] = system: N. gonorrhoeae WHO K; assay: Liquid broth MIC in Fastidious broth; settings: Neisseria gonorrhoeae
# Procedure, shortened: as §2
# [6] = system: N. gonorrhoeae WHO L; assay: Liquid broth MIC in Fastidious broth; settings: Neisseria gonorrhoeae, Fastidious broth
# Procedure, shortened: as §1
# [7] = system: N. gonorrhoeae WHO Q; assay: Liquid broth MIC in Fastidious broth; settings: Neisseria gonorrhoeae
# Procedure, shortened: as §2
# [8] = system: N. gonorrhoeae WHO Z; assay: Liquid broth MIC in Fastidious broth; settings: Neisseria gonorrhoeae
# Procedure, shortened: as §2
# [9] = system: E. coli 901C; assay: Broth microdilution MIC in CAMHB; settings: Escherichia coli; E. coli 901C (hyper-permeable); MHB; read-out: Minimum Inhibitory Concentration, E. coli 901C
# Procedure, shortened: (§3)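 Standard CLSI-style microdilution in cation-adjusted Mueller Hinton broth, 2-fold dilution series, incubated 16-20 h at 37° C; endpoint was visual absence of growth.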
# [10] = system: E. coli AG100A; assay: Broth microdilution MIC in CAMHB; settings: Escherichia coli, read-out: Minimum Inhibitory Concentration, E. coli AG100A
# Procedure, shortened: as §3
# [11] = system: E. coli AG100; assay: Broth microdilution MIC in CAMHB; settings: Escherichia coli; E. coli AG100 (wild-type parent); MHB; read-out: Minimum Inhibitory Concentration, E. coli AG100
# Procedure, shortened: as §3
# [12] = system: E. coli D22; assay: Broth microdilution MIC in CAMHB; settings: Escherichia coli; E. coli D22 (hyper-permeable); MHB; read-out: Minimum Inhibitory Concentration, E. coli D22
# Procedure, shortened: as §3
# [13] = system: K. pneumoniae UMM producing SHV-5 and KPC-2; assay: Broth microdilution MIC in CAMHB; settings: Klebsiella pneumoniae, read-out: Minimum Inhibitory Concentration, K. pneumoniae UMM
# Procedure, shortened: as §3
# [14] = N. gonorrhoeae ATCC 49226, read-out: Minimum Inhibitory Concentration, ATCC 49226
# [15] = N. gonorrhoeae FA1090, read-out: Minimum Inhibitory Concentration, FA1090
# [16] = H041, read-out: Minimum Inhibitory Concentration, H041
# [17] = N. gonorrhoeae WHO G, read-out: Minimum Inhibitory Concentration, WHO G
# [18] = read-out: Minimum Inhibitory Concentration, WHO K
# [19] = N. gonorrhoeae WHO L, read-out: Minimum Inhibitory Concentration, WHO L
# [20] = read-out: Minimum Inhibitory Concentration, WHO Q
# [21] = read-out: Minimum Inhibitory Concentration, WHO Z
# [22] = N. gonorrhoeae strain ATCC 49226, read-out: Minimum Inhibitory Concentration, N. gonorrhoeae ATCC 49226
# [23] = N. gonorrhoeae strain FA1090, read-out: Minimum Inhibitory Concentration, N. gonorrhoeae FA1090
# [24] = H041, read-out: Minimum Inhibitory Concentration, N. gonorrhoeae H041
# [25] = N. gonorrhoeae strain WHO G, read-out: Minimum Inhibitory Concentration, N. gonorrhoeae WHO G
# [26] = read-out: Minimum Inhibitory Concentration, N. gonorrhoeae WHO K
# [27] = N. gonorrhoeae strain WHO L, read-out: Minimum Inhibitory Concentration, N. gonorrhoeae WHO L
# [28] = read-out: Minimum Inhibitory Concentration, N. gonorrhoeae WHO Q
# [29] = read-out: Minimum Inhibitory Concentration, N. gonorrhoeae WHO Z
Compound,"MIC [1, 14] [µg/mL]","MIC [2, 15] [µg/mL]","MIC [3, 16] [µg/mL]","MIC [4, 17] [µg/mL]","MIC [5, 18] [µg/mL]","MIC [6, 19] [µg/mL]","MIC [7, 20] [µg/mL]","MIC [8, 21] [µg/mL]","MIC [1, 22] [µg/mL]","MIC [2, 23] [µg/mL]","MIC [3, 24] [µg/mL]","MIC [4, 25] [µg/mL]","MIC [5, 26] [µg/mL]","MIC [6, 27] [µg/mL]","MIC [7, 28] [µg/mL]","MIC [8, 29] [µg/mL]",also measured
"CCN1CCN(C(=O)N[C@H](C(=O)N[C@H]2Cc3ccc(F)c(C(=O)O)c3OB2O)c2ccc(O)c(O)c2)C(=O)C1=O [Example 210, (R)-3-((S)-2-(3,4-dihydroxyphenyl)-2-(4-ethyl-2,3-dioxopiperazine-1-carboxamido)acetamido)-7-fluoro-2-hydroxy-3,4-dihydro-2H-benzo[e][1,2]oxaborinine-8-carboxylic acid]",> 64,> 64,> 64,> 64,> 64,> 64,> 64,> 64,–,–,–,–,–,–,–,–,–
"CS(=O)(=O)N1CCN(C(=O)NC(C(=O)N[C@H]2Cc3ccc(F)c(C(=O)O)c3OB2O)c2c(Cl)cc(O)c(O)c2F)C1=O (stereo partly drawn) [Example 208, (3R)-3-(2-(6-chloro-2-fluoro-3,4-dihydroxyphenyl)-2-(3-(methylsulfonyl)-2-oxoimidazolidine-1-carboxamido)acetamido)-7-fluoro-2-hydroxy-3,4-dihydro-2H-benzo[e][1,2]oxaborinine-8-carboxylic acid]",> 64,4 to 8,> 64,16 to 32,> 64,> 64,> 64,> 64,–,–,–,–,–,–,–,–,–
"C[C@H]1CN(CCNC(=O)c2ccc(O)c(O)c2Cl)C(=O)C(=O)N1C(=O)NC(C(=O)N[C@H]1Cc2cccc(C(=O)O)c2OB1O)c1ncc(O)cc1F (stereo partly drawn) [Example 2, (3R)-3-(2-((S)-4-(2-(2-chloro-3,4-dihydroxybenzamido)ethyl)-6-methyl-2,3-dioxopiperazine-1-carboxamido)-2-(3-fluoro-5-hydroxypyridin-2-yl)acetamido)-2-hydroxy-3,4-dihydro-2H-benzo[e][1,2]oxaborinine-8-carboxylic acid]",–,–,–,–,–,–,–,–,> 64,4 to 8,> 64,> 64,> 64,> 64,–,–,MIC [9]: 0.5 to 1 µg/mL; MIC [10]: 0.5 to 1 µg/mL; MIC [11]: 2 to 4 µg/mL; MIC [12]: 2 to 4 µg/mL; MIC [13]: 2 to 4 µg/mL
"CCN1CCN(C(=O)N[C@@H](C(=O)N[C@H]2Cc3ccc(F)c(C(=O)O)c3OB2O)c2c(Cl)cc(O)c(O)c2F)C(=O)C1=O (single isomer, unassigned) [Example 207]",16 to 32,4 to 8,> 64,16 to 32,> 64,> 64,> 64,16 to 32,–,–,–,–,–,–,–,–,–
"CCN1CCN(C(=O)N[C@@H](C(=O)N[C@H]2Cc3cc(Cl)c(F)c(C(=O)O)c3OB2O)c2c(F)cc(O)c(O)c2Cl)C(=O)C1=O [Example 191, (R)-6-chloro-3-((R)-2-(2-chloro-6-fluoro-3,4-dihydroxyphenyl)-2-(4-ethyl-2,3-dioxopiperazine-1-carboxamido)acetamido)-7-fluoro-2-hydroxy-3,4-dihydro-2H-benzo[e][1,2]oxaborinine-8-carboxylic acid]",–,–,–,–,–,–,–,–,> 64,16 to 32,> 64,> 64,> 64,> 64,> 64,> 64,–
"NCCCN1CCN(C(=O)N[C@@H](C(=O)N[C@H]2Cc3cc(Cl)c(F)c(C(=O)O)c3OB2O)c2c(F)cc(O)c(O)c2Cl)C(=O)C1=O [Example 190, (R)-3-((R)-2-(4-(3-aminopropyl)-2,3-dioxopiperazine-1-carboxamido)-2-(2-chloro-6-fluoro-3,4-dihydroxyphenyl)acetamido)-6-chloro-7-fluoro-2-hydroxy-3,4-dihydro-2H-benzo[e][1,2]oxaborinine-8-carboxylic acid]",–,–,–,–,–,–,–,–,> 64,16 to 32,> 64,> 64,> 64,> 64,> 64,> 64,–
